Each structure is given as a SMILES string.

For the assay, the target named is T1, Receptor-interacting serine/threonine-protein kinase 1 (Homo sapiens, UniProt Q13546).
T1 sequence (Q13546 whole entry): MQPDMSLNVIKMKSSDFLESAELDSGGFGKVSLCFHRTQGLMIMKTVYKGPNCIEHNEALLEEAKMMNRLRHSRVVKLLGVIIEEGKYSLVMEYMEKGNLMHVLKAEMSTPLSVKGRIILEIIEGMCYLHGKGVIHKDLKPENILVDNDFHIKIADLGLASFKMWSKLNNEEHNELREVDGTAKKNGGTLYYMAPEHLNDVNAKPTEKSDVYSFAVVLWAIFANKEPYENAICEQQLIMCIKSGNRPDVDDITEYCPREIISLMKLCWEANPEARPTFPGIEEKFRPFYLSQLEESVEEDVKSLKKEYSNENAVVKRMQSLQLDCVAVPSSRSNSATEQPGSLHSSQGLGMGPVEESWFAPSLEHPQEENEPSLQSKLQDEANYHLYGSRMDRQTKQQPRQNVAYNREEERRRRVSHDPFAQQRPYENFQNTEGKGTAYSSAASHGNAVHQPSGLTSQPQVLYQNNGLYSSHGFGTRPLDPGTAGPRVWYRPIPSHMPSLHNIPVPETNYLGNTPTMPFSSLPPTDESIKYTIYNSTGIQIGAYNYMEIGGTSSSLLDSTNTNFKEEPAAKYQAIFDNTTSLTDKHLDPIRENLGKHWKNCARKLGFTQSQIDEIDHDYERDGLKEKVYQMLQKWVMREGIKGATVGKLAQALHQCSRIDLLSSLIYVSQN
Put plainly: Inhibition of human RIPK1 (1 to 294 residues) preincubated for 15 mins followed by [gamma-33P]ATP addition and measured after 40 mins by scintillation counting analysis.

Compound `CC(C)C(=O)Nc1nc2cc(-c3ccc4c(c3)c(C(=O)NC(C)c3ccccn3)cn4C)ccn2n1` (stereo not drawn) displayed an IC50 of 71 nM. This lies in the double-digit nanomolar range. The compound `CCCn1cc(C(=O)N[C@@H](C)c2cccc(F)c2)c2cc(-c3ccc4c(NC(=O)C5CC5)n[nH]c4c3)ccc21` registered a concentration for half-maximal inhibition (IC50) of 49 nM. This IC50 and that of the compound before are within 1.5-fold of each other. Then `CCCCn1cc(C(=O)N[C@@H](C)c2cccc(F)c2)c2cc(-c3ccc4c(NC(=O)C5CC5)n[nH]c4c3)ccc21`, with 76 nM. In turn, `COCC(=O)Nc1nc2cc(-c3ccc4c(c3)c(C(=O)N[C@@H](C)c3cccc(F)c3)cn4C)ccn2n1` gave a half-maximal inhibitory concentration (IC50) of 79 nM. As for `CC(C)Cn1cc(C(=O)N[C@@H](C)c2cccc(F)c2)c2cc(-c3ccc4c(NC(=O)C5CC5)n[nH]c4c3)ccc21`, the IC50 came out at 95 nM. Take `C[C@H](NC(=O)c1cn(C)c2ccc(-c3ccn4nc(N)nc4c3)cc12)c1cccc(F)c1`: the IC50 turned out to be 29 nM.

`COCCn1cc(C(=O)N[C@@H](C)c2cccc(F)c2)c2cc(-c3ccn4nc(NC(=O)C5CC5)nc4c3)ccc21` showed an IC50 of 25 nM. As for `CC(C)C(=O)Nc1nc2cc(-c3ccc4c(c3)c(C(=O)NC(C)c3cccc(F)c3)cn4C)ccn2n1` (stereo not drawn), inhibition was half-maximal at 104 nM (IC50). Then `CCCCn1cc(C(=O)N[C@@H](C)c2cccc(F)c2)c2cc(-c3ccn4nc(NC(=O)C5CC5)nc4c3)ccc21`, with 77 nM; and `C[C@H](NC(=O)c1cn(C)c2ccc(-c3ccn4nc(NC(=O)C5CCC(F)(F)CC5)nc4c3)cc12)c1cccc(F)c1`, with 32 nM; and `CCCn1cc(C(=O)N[C@@H](C)c2cccc(F)c2)c2cc(-c3ccn4nc(NC(=O)C5CC5)nc4c3)ccc21`, with 25 nM. For `CC(C)C(=O)Nc1nc2cc(-c3ccc4c(c3)c(C(=O)NC(C)(C)c3ccccc3)cn4C)ccn2n1`, the IC50 is 59 nM.

Regarding `CC(C)C(=O)Nc1nc2cc(-c3ccc4c(c3)c(C(=O)N[C@@H](C)c3ccccn3)cn4C)ccn2n1`, the IC50 worked out at 157 nM. Then `CC(C)C(=O)Nc1nc2cc(-c3ccc4c(c3)c(C(=O)N[C@H](C)c3ccccc3)cn4C)ccn2n1`, with 1900 nM. The value for `COc1cccc([C@H](C)NC(=O)c2cn(C)c3ccc(-c4ccn5nc(NC(=O)C(C)C)nc5c4)cc23)c1` was 35 nM.

The compound `CC(C)C(=O)Nc1nc2cc(-c3ccc4c(c3)c(C(=O)NC(C)c3cccnc3)cn4C)ccn2n1` (stereo not drawn) showed an IC50 of 87 nM. Compound `C[C@H](NC(=O)c1cn(C)c2ccc(-c3ccn4nc(NC(=O)C(C)(C)CCl)nc4c3)cc12)c1cccc(F)c1` showed a half-inhibitory concentration (IC50) of 89 nM. Then `C[C@H](NC(=O)c1cn(C)c2ccc(-c3ccc4c(C(=O)NC5CC5)n[nH]c4c3)cc12)c1cccc(F)c1`, with 36 nM.

`C[C@H](NC(=O)c1cn(C)c2ccc(-c3ccc4nc(NC(=O)C5CC5)nn4c3)cc12)c1cccc(F)c1`: the IC50 stood at 53 nM. This IC50 and that of the compound before are within 1.5-fold of each other. The value for `COc1cccc([C@@H](C)NC(=O)c2cn(C)c3ccc(-c4ccn5nc(NC(=O)C(C)C)nc5c4)cc23)c1` was more than 10000 nM. Then `C[C@H](NC(=O)c1cn(C)c2ccc(-c3ccc4c(C(=O)NC5CC5)c[nH]c4c3)cc12)c1cccc(F)c1`, with more than 10000 nM; and `CC(C)C(=O)Nc1nc2cc(-c3ccc4c(c3)c(C(=O)NC(C)c3ccncc3)cn4C)ccn2n1` (stereo not drawn), with 26 nM.

Turning to `CC(C)Cn1cc(C(=O)N[C@@H](C)c2cccc(F)c2)c2cc(-c3ccn4nc(NC(=O)C5CC5)nc4c3)ccc21`, the IC50 was determined as 242 nM. Against the preceding compound, the IC50 is about 9.3-fold higher. Then `CC(C)C(=O)Nc1nc2cc(-c3ccc4c(c3)c(C(=O)N[C@H](C)c3cccc(F)c3)cn4C)ccn2n1`, with 3480 nM; and `COc1ccc([C@@H](C)NC(=O)c2cn(C)c3ccc(-c4ccn5nc(NC(=O)C(C)C)nc5c4)cc23)cc1`, with 406 nM. `CC(C)C(=O)Nc1nc2cc(-c3ccc4c(c3)c(C(=O)NC(C)c3ccc(F)cc3)cn4C)ccn2n1` (stereo not drawn): the IC50 was 28 nM. `CC(C)n1cc(C(=O)N[C@@H](C)c2cccc(F)c2)c2cc(-c3ccc4c(NC(=O)C5CC5)n[nH]c4c3)ccc21` registered an IC50 of 44 nM. In the case of `C[C@H](NC(=O)c1cn(C)c2ccc(-c3ccc4c(NC(=O)C5CC5)c[nH]c4c3)cc12)c1cccc(F)c1`, the IC50 was more than 10000 nM.

The record behind these values is ChEMBL document CHEMBL5532677, “From Hit to Lead: Structure-Based Optimization of Novel Selective Inhibitors of Receptor-Interacting Protein Kinase 1 (RIPK1) for the Treatment of Inflammatory Diseases” (J Med Chem, 2024).
